# How the values were obtained:
# [1] = test system: HeLa cells; assay: Viability of Hela cells; assay type: cell-based; settings: 50-100 μM, 48 hrs
# Procedure: FIG. 10 is the result of the experiments using compound of formula 2 (hereinafter referred to as MSL-7) of the present disclosure as an autophagic enhancer. FIG. 10A is the result of immuneblot using the antibodies indicated using Hela cells treated with MSL or MSL-7. FIG. 10B is the result of measuring the viability of Hela cells treated with vehicle control or various concentration of MSL-7 (50-100 μM) for 48 hrs. FIG. 10C is the result of DAPI stained nuclei of TFEB-GFP HeLa cells which were treated with vehicle control or MSL-7 for 4 hrs. The graph indicates the percentage of TFEB translocated into the nuclei. Error bars, S.D. *, P<0.05; **, P<0.01; ***, P<0.001.
# Screening of autophagy enhancer. […] Firefly luciferase was determined after mixing 5 μl of lysate with 25 μl of Luciferase Assay Reagent II. Renilla luciferase was then determined after further addition of 20 ul of Stop&Glo Reagent. […] Cytotoxicity was determined by the measurement of LDH release in cell culture media using the LDH kit (Roche), according to the protocol from the manufacturer. […] Imaging and image quantification. […] Formation of acidic vesicular organelles was quantitated by staining the cells with acridine orange (Invitrogen, 5 ug/ml, 10 min). […] Cells or tissues were solubilized in lysis buffer supplemented with protease and phosphatase inhibitors and protein concentration was measured by the Bradford method. […]
# [2] = test system: primary peritoneal macrophages; assay: Mitochondrial ROS (MitoSOX) and potential (MitoTracker) by FACS; assay type: cell-based, C57BL/6 mice; settings: PA plus LPS
SMILES,cellular toxicity [1],mitochondrial ROS content (MitoSox) [2],mitochondrial potential (MitoTracker Red) [2]
"COc1oc(-c2ccccc2Cl)nc1S(=O)(=O)c1ccccc1 [MSL-7, 2-(2-chlorophenyl)-5-methoxy-4-(phenylsulfonyl) oxazole]",without cellular toxicity,–,–
CSc1oc(-c2ccccc2)nc1S(=O)(=O)c1ccc(F)cc1 [MSL],–,significantly reduced,significantly reduced

# — patent US10881642B2, “Autophagy enhancer and use thereof” (Industry-Academic Cooperation Foundation, Yonsei University, priority 2016, dated 2021)
